According to patent US20210361733A1, “Prevention and Treatment of SARS-CoV-2 Infection by Mentha piperita and Flos chrysanthemi Extracts alone, and their Combination” (priority 2021, published 2021):
“Also recorded” adds a separate entry of the source.

Tests used:
SARS-CoV-2 [1] = type: cell-based
Vero cell line = test: Cytotoxicity of herbal extracts on Vero cell line, MTT assay; conditions: concentration not printed
SARS-CoV-2 [2] = conditions: prophylactic/therapeutic (full-time) setting, at 37° and 4° C., by CPE and RT-PCR; cited from earlier work

Row | Structure (SMILES) | viral load inhibition (increasing Cq value, decreasing percent viral copy number) (SARS-CoV-2 [1]; reference drugs: Chloroquine phosphate 9.69 μM/mL, Remdesivir 8.297 μM/mL) | inhibition of SARS-CoV-2 (SARS-CoV-2 [1]; viral full entry and post entry treatment points) | cytotoxicity / percent inhibition (MTT assay) (Vero cell line) | cytotoxicity / percent inhibition (MTT assay) (Vero cell line; listed as Chloroquine) | antiviral activity (SARS-CoV-2 [2])
1 | CCN(CC)CCCC(C)Nc1ccnc2cc(Cl)ccc12 (stereo not drawn) [Chloroquine phosphate] | viral load inhibition | inhibition of SARS-CoV-2 | non-toxic | no inhibition | –
2 | CCC(CC)COC(=O)[C@H](C)N[P@](=O)(OC[C@H]1O[C@@](C#N)(c2ccc3c(N)ncnn23)[C@H](O)[C@@H]1O)Oc1ccccc1 [Remdesivir] | – | – | no inhibition; also recorded: non-toxic | – | –
3 | CCN(CCO)CCCC(C)Nc1ccnc2cc(Cl)ccc12 (stereo not drawn) [hydroxychloroquine] | – | – | – | – | significant antiviral activity
